In US6248718A, “Lesion-directed dry dosage forms of antibacterial agents for the treatment of acute mucosal infections of the oral cavity” (priority 1999, dated 2001):
“And” between values parts separate entries of the source, which are not always exact repeats. Equal entries are not always repeated. “Also recorded” adds a separate entry of the source.

Columns and labels:
[1] = test system: bacteria in saliva in the vicinity of the canker ulcer; experiment: Bacterial inhibition in saliva of canker sore patients in vivo (Example VI)
Protocol: Six (6) adult, otherwise healthy patients suffering from recurrent minor canker sores were selected for this study from July 10 to Nov. 12, 1998. The drug substance used for this study was crystalline penicillin G potassium salt, U.S.P. grade, purchased from Sigma Chemical Co., St. Louis, Mo. 63178 (Lot No. 57H1195).
On the first or the second day after the patients noticed the formation of the canker ulcers, 50 mg of penicillin G potassium was administered topically with a spatula or the handle of a teaspoon as dry powder directly over the canker ulcers, four times a day, i.e. after breakfast, after lunch, after supper and before bed time. The patients were advised to retain the antibiotic powder and its concentrated solution in a small pocket of saliva at the site of the ulcer and to avoid its excessive dilution by saliva from other parts of the oral cavity for one hour after each application of the antibiotic powder. No food or drink was allowed during this one-hour period.
Samples of 0.1 ml of saliva at the site in the vicinity of the canker ulcer were pipetted from the mouth immediately before instituting the first penicillin G potassium application and about 60-70 minutes after the first antibiotic application. Each sample was spread on the surface of a 10-cm blood agar Petri dish with a sterile plastic loop. The inoculated plates were incubated aerobically at 37° C. for 18 hours as described above. The total numbers of bacterial colonies on each plate were estimated. The dominating species of the microorganisms were identified according to the approved protocols routinely used in a clinical microbiology laboratory. The results are tabulated as follows
On day 2, about 48 hours after the medication was initiated, the patients collected an early morning sample of saliva immediately after getting up and submitted it to the laboratory for culture. While in the laboratory, a second sample of the residual exudate covering the ulcer was taken from the patient for a post-treatment follow-up microscopy after Congo red negative staining.
On day 6, i.e. two days after the last dose of medication, the patients were instructed to collect a sample of saliva in a sterile test tube upon waking up in the morning before brushing their teeth. The saliva was brought to the laboratory. Aliquot of 0.1 ml of each saliva sample was pipetted and inoculated on the surface of a blood agar plate and incubated aerobically as described previously. After 18 hours of incubation, there were more 3,000 colonies growing on each blood agar plate. The overwhelming majority of the colonies were those of Neisseriae and non-β-hemolytic streptococci, similar to those observed in FIG. 1.

[2] = Local concentrations of penicillin in saliva after topical medication of various doses (Example VII); assay type: in vivo, human; settings: for Penicillin concentration in saliva / concentration at 0.1 h / concentration at 20 min / concentration at 40 min / concentration at 1 h / concentration at 2 h: studies 1-3; for concentration at 0.1 h / concentration at 20 min / concentration at 40 min / concentration at 1 h / concentration at 2 h: human, in vivo, topical or ocular; for concentration at 2 h: 120 min, after water at 60 min
Protocol: Five healthy adult volunteers, three men and two women, were selected for this study. The same volunteers were used as the subjects for three studies, and the results are summarized as follows.
On the day of study, two hours after breakfast, the volunteers were given a dose of 100 mg, 50 mg, 20 mg, 10 mg and 2 mg of USP grade penicillin G potassium powder respectively. The drug powder was placed in the right oral sulcus between the lower gum and the buccal mucosa to be dissolved in a minimum amount of saliva. This loculated pocket of saliva was not to be swallowed and was not to be further diluted by saliva from other parts of the mouth for one hour. At 6 minutes, 20 minutes, 40 minutes and 60 minutes after drug application, an aliquot of 0.01 ml was taken from this pocket of saliva and added into a test tube containing 10 ml of nutrient broth to give a 1,000 times dilution. After being mixed well, aliquots of the mixtures of saliva sample and nutrient broth were forced to pass through bacterial filters into sterile test tubes. Then 0.8 ml of each 1:1,000 diluted filtrate was pipetted and added to 3.2 ml of nutrient broth to make an additional 5 times dilution in a total volume of 4 ml. Two ml was pipetted from the latter to make a serial double dilution of saliva sample in 2 ml of nutrient broth, as described above under a, in 12 test tubes. The dilution factor for the saliva sample in test No. 1 was 1:5,000 and increased progressively to 1:10,240,000 in test tube No. 12.
After the 60-minute sample was taken, the subjects were given an 8 oz. glass of water to drink or to rinse his or her mouth, but refrained from drinking and eating for another hour. At the end of this last hour, i.e. about 2 hours after the drug application, another saliva sample of 0.2 ml was withdrawn and added to 3.8 ml of nutrient broth to make a 1:20 dilution and the mixture was forced to pass a bacterial filter into a sterile test tube. Two (2 ) ml of the filtrate was pipetted from this 1:20 diluted mixture for antibiotic activity assays.
Each filtered mixture in test tube was inoculated with 0.1 ml of a 1:1,000 dilution of a 12 hour broth culture of Staphylococcus aureus ATCC 29213.
A row of 6 test tubes each containing 2 ml of nutrient broth with decreasing concentrations of penicillin G potassium from 6.2 to 0.16 mcg/ml, using a serial double dilution method described in a., was prepared and similarly inoculated with 0.1 ml broth culture of Staphylococcus aureus ATCC 29213 as the standard.
All test tubes were incubated at 37° C. for 18 hours and observed for bacterial growth against an inoculated broth containing neither antibiotic nor saliva samples.
The test tube of the highest number with the highest dilution factor of saliva in nutrient broth in which no bacterial growth was observed was interpreted as containing an equivalent of penicillin G potassium at 0.75 mcg/ml. Using the dilution factors, it was calculated that, after topical application of 2 to 100 mg of penicillin G potassium dry powder, the concentrations of penicillin G potassium in the saliva at the site of medication within the first hour and one hour after purging the mouth with water were as follows.

SMILES: CC1(C)S[C@@H]2[C@H](NC(=O)Cc3ccccc3)C(=O)N2[C@H]1C(=O)O [penicillin G potassium]
- duration of inhibitory effect on oral flora ([1]; 50 mg): not long-lasting
- alteration of normal oral flora ([1]; 50 mg four times a day, intermittent): not permanently altered; also recorded: did not seem to alter the dominant microbial components of the normal flora
- Colonies after Treatment ([1]; 50 mg powder, about 60-70 minutes, 0.1 ml saliva, per patient, Y = yeast): 0 and 2 and Two
- inhibition of bacteria in saliva covering the ulcer ([1]; 50 mg powder, about one hour): totally destroyed or inhibited; also recorded: intermittent total inhibition of bacterial growth in the saliva
- bacterial colonies in early morning saliva ([1]; day 2, about 48 hours after start of medication, 0.1 ml): more than 3,000 bacterial colonies
- bacterial colonies in morning saliva ([1]; day 6, two days after last dose, 0.1 ml): > 3,000 colonies
- Penicillin concentration in saliva ([2]; 2 mg topical powder, 20 min): below 3.75 mg/ml
- Penicillin concentration in saliva ([2]; 2 mg topical powder, 20 min, listed as Penicillin G Potassium): < 3.75 mg/mL
- Penicillin concentration in saliva ([2]; 2 mg topical powder, 40 min): < 3.75 mg/mL
- Penicillin concentration in saliva ([2]; 2 mg topical powder, 60 min): < 3.75 mg/mL
- Penicillin concentration in saliva ([2]; 10 mg topical powder, 6 min): 60 mg/mL
- Penicillin concentration in saliva ([2]; 10 mg topical powder, 60 min): 3.75 mg/mL and 7.5 mg/mL
- Penicillin concentration in saliva ([2]; 20 mg topical powder, 6 min): 240 mg/mL and 120 mg/mL
- Penicillin concentration in saliva ([2]; 20 mg topical powder, 20 min): 60 mg/mL
- Penicillin concentration in saliva ([2]; 20 mg topical powder, 60 min): 7.5 mg/mL
- Penicillin concentration in saliva ([2]; 50 mg topical powder, 6 min): 240 mg/mL and 480 mg/mL
- Penicillin concentration in saliva ([2]; 50 mg topical powder, 20 min): 120 mg/mL and 240 mg/mL
- Penicillin concentration in saliva ([2]; 50 mg topical powder, 60 min): 7.5 mg/mL
- Penicillin concentration in saliva ([2]; 100 mg topical powder, 6 min): 480 mg/mL
- Penicillin concentration in saliva ([2]; 100 mg topical powder, 20 min): 240 mg/mL and 120 mg/mL
- Penicillin concentration in saliva ([2]; 100 mg topical powder, 40 min): 60 mg/mL
- Penicillin concentration in saliva ([2]; 100 mg topical powder, 60 min): 30 mg/mL and 15 mg/mL
- initial peak concentrations at the site of medication ([2]; doses of 2 mg to 100 mg powder): 7.5 to 960 mg/mL
- dose required to maintain minimum 3.75 mg/ml in saliva for one hour ([2]; dry powder): at least 10 mg
- concentration at 0.1 h ([2]; 2 mg topical powder, 6 min): 15000 µg/mL
- concentration at 20 min ([2]; 2 mg topical powder, 20 min): 7500 µg/mL
- concentration at 40 min ([2]; 2 mg topical powder, 40 min): 3750 µg/mL
- concentration at 1 h ([2]; 2 mg topical powder, 60 min): < 3750 µg/mL
- concentration at 2 h ([2]; 2 mg topical powder): < 15 µg/mL
- concentration at 0.1 h ([2]; 10 mg topical powder, 6 min): 60000 µg/mL
- concentration at 20 min ([2]; 10 mg topical powder, 20 min): 30000 µg/mL
- concentration at 40 min ([2]; 10 mg topical powder, 40 min): 15000 µg/mL
- concentration at 1 h ([2]; 10 mg topical powder, 60 min): 3750 µg/mL
- concentration at 2 h ([2]; 10 mg topical powder): < 15 µg/mL
- concentration at 0.1 h ([2]; 20 mg topical powder, 6 min): 120000 µg/mL
- concentration at 20 min ([2]; 20 mg topical powder, 20 min): 60000 µg/mL
- concentration at 40 min ([2]; 20 mg topical powder, 40 min): 7500 µg/mL
- concentration at 1 h ([2]; 20 mg topical powder, 60 min): 7500 µg/mL
- concentration at 2 h ([2]; 20 mg topical powder): < 15 µg/mL
- concentration at 0.1 h ([2]; 50 mg topical powder, 6 min): 480000 µg/mL
- concentration at 20 min ([2]; 50 mg topical powder, 20 min): 240000 µg/mL
- concentration at 40 min ([2]; 50 mg topical powder, 40 min): 30000 µg/mL
- concentration at 1 h ([2]; 50 mg topical powder, 60 min): 7500 µg/mL
- concentration at 2 h ([2]; 50 mg topical powder): < 15 µg/mL
- concentration at 0.1 h ([2]; 100 mg topical powder, 6 min): 960000 µg/mL
- concentration at 20 min ([2]; 100 mg topical powder, 20 min): 240000 µg/mL
- concentration at 40 min ([2]; 100 mg topical powder, 40 min): 30000 µg/mL
- concentration at 1 h ([2]; 100 mg topical powder, 60 min): 15000 µg/mL
- concentration at 2 h ([2]; 100 mg topical powder): < 15 µg/mL
- concentration in saliva after drinking ([2]; one hour after 8 oz. of fluid, all doses): < 15 µg/mL
